Like-named read-outs stand apart in the source and are kept apart here.

A word on the EC50: it is the concentration that produces a half-maximal response.

The target in assay [1] is T1, human D2-long dopamine receptor (Homo sapiens, UniProt P14416).
T1 construct: expressed in transfected cells
In words: Binding in cloned human D2 receptors in HEK cells. Conditions: 125I-IABN. An excerpt: (§1) Human dopamine D2-long (“D2”) and D3 ([…]) receptors were expressed in HEK cells. In brief, stably transfected HEK cells expressing the human D2-long and the D3 dopamine receptor were developed using the pIRES bicistronic expression vector (CLONTECH; Palo Alto, Calif.). […] For comparison, human dopamine D4 (“D4”) receptors were obtained from HEK 293 cells stably transfected with a PCR product o'f a human cDNA coding for the D4.4 form of the human D4 dopamine receptor.

Assay [2] addresses T2, human D3 dopamine receptor (Homo sapiens, UniProt P35462).
T2 construct: expressed in transfected cells
In words: Binding in cloned human D3 receptors in HEK cells. The settings on record: for D2/D3: ratio of D2 to D3 binding values.
Description: as §1

For assay [3], the target named is T3, D4.4 form of the human D4 dopamine receptor (Homo sapiens, UniProt P21917).
T3 construct: expressed in transfected cells
T3 sequence (P21917 1-419): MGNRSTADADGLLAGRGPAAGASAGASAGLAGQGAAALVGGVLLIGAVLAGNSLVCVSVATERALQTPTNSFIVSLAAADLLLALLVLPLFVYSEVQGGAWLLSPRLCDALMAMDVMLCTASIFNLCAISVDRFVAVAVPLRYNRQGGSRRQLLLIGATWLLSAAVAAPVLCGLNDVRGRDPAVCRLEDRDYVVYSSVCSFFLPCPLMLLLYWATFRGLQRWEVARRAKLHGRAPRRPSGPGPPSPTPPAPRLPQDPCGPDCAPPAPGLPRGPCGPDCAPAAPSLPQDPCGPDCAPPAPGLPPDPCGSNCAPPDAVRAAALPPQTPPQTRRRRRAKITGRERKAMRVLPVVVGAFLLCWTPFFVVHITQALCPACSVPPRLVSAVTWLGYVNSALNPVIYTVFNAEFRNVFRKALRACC
In words: Binding in cloned human D4 receptors in HEK cells. The settings on record: cloned human D4.4 receptors in HEK 293 cells. On the procedure: Human dopamine D2-long (“D2”) and D3 ([…]) receptors were expressed in HEK cells. In brief, stably transfected HEK cells expressing the human D2-long and the D3 dopamine receptor were developed using the pIRES bicistronic expression vector (CLONTECH; Palo Alto, Calif.). The level of expression of D2 or D3 receptors was determined to be greater than 2,000 fmoles/mg protein. For comparison, human dopamine D4 (“D4”) receptors were obtained from HEK 293 cells stably transfected with a PCR product o'f a human cDNA coding for the D4.4 form of the human D4 dopamine receptor. The density of binding sites is approximately 1000 fmol/mg protein.
Methods for performing in vitro dopamine receptor binding studies are described in Huang et al. J. Med. Chem. 44:1815-1826 (2001) and Luedtke et al. Synapse 38:438-439 (2000), the contents of which are hereby incorporated by reference. […] Therefore, ^125I-IABN appears to be a high affinity, selective antagonist at D2-like dopamine receptors.

For assay [4], the target named is T4, human D4.4 dopamine receptors (Homo sapiens, UniProt P21917).
T4 construct: expressed in transfected cells; host or cells: HEK 293 cells
T4 sequence (P21917 1-419): T3 sequence (P21917 1-419)
Conditions: HEK 293 cells; cited from earlier work.

Another assay concerns sigma σ1 binding sites. Conditions: cited from earlier work.
A further assay has as its system sigma σ2 binding sites. Conditions: cited from earlier work.
In another assay the target is D1a dopamine receptors (Homo sapiens, UniProt P21728). Conditions: cited from earlier work.
In the next assay the target is T5, hD3 (Homo sapiens, UniProt P35462).
T5 construct: expressed in transfected cells; host or cells: CHOp- cells, kept under G418
In words: D3 functional assay, stimulation of mitogenesis in CHO cells (agonist assay). The class given is cell-based. Conditions: for EC50: [3H]thymidine, read-out: Agonist EC50 (nM) ± S.E.M. On the procedure:
The cells were incubated at 37° C. in α-MEM with 10% FBS, 0.05% penicillin-streptomycin, and 200 μg/mL of G418. After 48 hours, the cells were rinsed twice with serum-free α-MEM and incubated for 24 hours at 37° C. In the functional assay for agonism, the medium was removed and replaced with 90 μl of serum-free α-MEM and 10 μl of test compound in sterile water; in the antagonist assay, the test compound was diluted in sterile water plus 30 nM quinpirole. After another 24-hour incubation at 37° C., 0.25 μCi of [^3H]thymidine was added to each well and the plates were further incubated for 2 hours at 37° C. The cells were then trypsinized, and the plates were filtered and counted as usual in the art. Quinpirole was run on every plate as an internal standard.

The mark [5] stands for this setting: cloned human D3 receptors in HEK cells, 125I-IABN, read-out: D3 binding data.

T2 sequence (P35462 whole entry): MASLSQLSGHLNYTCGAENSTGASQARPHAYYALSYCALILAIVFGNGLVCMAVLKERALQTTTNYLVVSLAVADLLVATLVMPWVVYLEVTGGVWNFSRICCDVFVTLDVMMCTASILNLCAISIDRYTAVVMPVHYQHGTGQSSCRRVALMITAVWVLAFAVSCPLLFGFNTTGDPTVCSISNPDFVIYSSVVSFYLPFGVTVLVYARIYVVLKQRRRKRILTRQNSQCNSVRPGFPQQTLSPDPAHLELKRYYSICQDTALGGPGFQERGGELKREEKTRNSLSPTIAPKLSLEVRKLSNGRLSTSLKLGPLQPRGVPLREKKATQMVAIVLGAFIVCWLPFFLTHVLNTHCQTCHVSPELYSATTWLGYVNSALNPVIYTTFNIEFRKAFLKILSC
T5 sequence (P35462 whole entry): as above
T1 sequence (P14416 whole entry): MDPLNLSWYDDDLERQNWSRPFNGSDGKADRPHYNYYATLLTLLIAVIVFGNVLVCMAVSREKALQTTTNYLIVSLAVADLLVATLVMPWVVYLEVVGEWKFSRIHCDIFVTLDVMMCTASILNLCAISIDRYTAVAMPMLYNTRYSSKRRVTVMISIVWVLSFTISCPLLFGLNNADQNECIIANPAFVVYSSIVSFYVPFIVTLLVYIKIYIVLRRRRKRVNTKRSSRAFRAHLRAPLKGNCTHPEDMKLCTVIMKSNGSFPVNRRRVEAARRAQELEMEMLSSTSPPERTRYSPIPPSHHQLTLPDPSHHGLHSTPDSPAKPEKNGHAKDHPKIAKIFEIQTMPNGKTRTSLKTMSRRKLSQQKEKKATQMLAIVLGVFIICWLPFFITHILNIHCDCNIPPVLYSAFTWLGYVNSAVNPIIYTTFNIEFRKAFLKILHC
Chain of D1a dopamine receptors (P21728 whole entry): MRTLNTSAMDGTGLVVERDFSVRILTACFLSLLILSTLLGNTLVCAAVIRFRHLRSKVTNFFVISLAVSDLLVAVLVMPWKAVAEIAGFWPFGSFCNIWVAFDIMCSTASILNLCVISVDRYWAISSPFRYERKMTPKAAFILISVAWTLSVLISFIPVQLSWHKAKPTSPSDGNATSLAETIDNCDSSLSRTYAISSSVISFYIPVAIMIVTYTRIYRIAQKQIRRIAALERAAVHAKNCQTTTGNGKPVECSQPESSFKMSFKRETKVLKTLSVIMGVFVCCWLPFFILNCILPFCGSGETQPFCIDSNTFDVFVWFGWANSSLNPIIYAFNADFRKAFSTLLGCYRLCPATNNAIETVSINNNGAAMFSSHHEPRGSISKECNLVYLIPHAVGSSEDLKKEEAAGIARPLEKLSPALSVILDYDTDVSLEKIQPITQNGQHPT

As to `O=C(NCC=CCN1CCN(c2cccc(Cl)c2Cl)CC1)c1ccc(I)cc1` [EEC 017, N-{4-[4-(2,3-Dichloro-phenyl)-piperazin-1-yl]-but-2-enyl}-4-iodo-benzamide], the Ki in assay [1] came to 35.4 ± 7.6 nM; in assay [2] (setting [5]), 4.2 ± 1.5 nM. In assay [2], the D2/D3 stood at 8. For `O=C(NC/C=C/CN1CCN(c2cccc(Cl)c2Cl)CC1)c1cccc(I)c1` [EEC 019], the Ki in assay [2] (setting [5]) is 3.9 ± 1.2 nM. For `O=C(NC/C=C/CN1CCN(c2cccc(Cl)c2Cl)CC1)c1ccc([N+](=O)[O-])cc1` [EEC 027], the Ki in assay [2] (setting [5]) is 0.6 ± 0.2 nM; in assay [3] it was 461 ± 187 nM.

`O=C(NC/C=C/CN1CCN(c2cccc(Cl)c2Cl)CC1)c1cccc(Cl)c1` [EEC 063]: the Ki in assay [2] (setting [5]) worked out at 2.1 ± 1.1 nM. For the compound `COc1ccc(C(=O)NC/C=C/CN2CCN(c3cccc(Cl)c3Cl)CC2)cc1` [EEC 067], the Ki in assay [1] worked out at 34.7 ± 11.4 nM. Consider `COc1cccc(C(=O)NC/C=C/CN2CCN(c3cccc(Cl)c3Cl)CC2)c1` [EEC 069], for which the Ki in assay [1] came to 56.9 ± 19.1 nM; in assay [2] (setting [5]) it was 4 ± 1.6 nM. Take `COc1cc([125I])cc(C(=O)NC2CC3CCCC(C2)N3Cc2ccccc2)c1OC` (stereo not drawn) [IABN]: the “fold lower affinity at human D4.4 than at D2 and D3 receptors” value in assay [4] is 7- to 10 fold. Further, in the assay on sigma σ1 binding sites, the “affinity for sigma σ1 binding sites” value was “low affinity”. Besides, in the assay on sigma σ2 binding sites, the “affinity for sigma σ2 binding sites” value is on record as “low affinity”. Besides, the “affinity for D1a dopamine receptors” value at D1a dopamine receptors is “low affinity”. `O=C(NCC#CCN1CCN(c2cccc(Cl)c2Cl)CC1)c1ccccc1` [JJC 2-062]: the values for the Ki in assay [1] and in assay [2] (setting [5]) were 491 ± 108 nM and 127 ± 10 nM, respectively. As for `O=C(NC/C=C/CN1CCN(c2cccc(Cl)c2Cl)CC1)c1ccccc1` [JJC 2-068], the Ki in assay [2] (setting [5]) is 0.6 ± 0.1 nM. Further, the EC50 on hD3 was above 10000 nM.

For the compound `O=C(NC/C=C/CN1CCN(c2cccc(Cl)c2Cl)CC1)c1ccc2c(c1)Cc1ccccc1-2` [JJC 2-071], the Ki in assay [1] was 186 ± 8 nM; in assay [2] (setting [5]), 3.4 ± 2.9 nM. Also, the “% Max Stim. ± S.E.M.” value on hD3 was determined as 44.1 ± 0.9%. `O=C(NCC#CCN1CCN(c2cccc(Cl)c2Cl)CC1)c1cccc2c1-c1ccccc1C2` [JJC 2-077]: the Ki was found to be 592 ± 27 nM in assay [1] and 318 ± 32 nM in assay [2] (setting [5]).

As to `O=C(NCC#CCN1CCN(c2cccc(Cl)c2Cl)CC1)c1ccc2c(c1)Cc1ccccc1-2` [JJC 2-078], the values for the Ki in assay [1] and in assay [2] (setting [5]) were 1650 ± 692 nM and 41.5 ± 5.4 nM, respectively. Take `O=C(NC/C=C\CN1CCN(c2cccc(Cl)c2Cl)CC1)c1ccccc1` [JJC 2-083]: the EC50 at hD3 is above 10000 nM. As to `O=C(NC/C=C\CN1CCN(c2cccc(Cl)c2Cl)CC1)c1ccc2c(c1)Cc1ccccc1-2` [JJC 2-085], the Ki in assay [1] is 61.1 ± 19.2 nM; in assay [2] (setting [5]), 3.8 ± 1.4 nM.

Turning to `O=C(NC/C=C/CN1CCN(c2cccc(Cl)c2Cl)CC1)c1ccc(Cl)cc1` [PG01007], the Ki in assay [1] stood at 25 ± 10.8 nM; in assay [2] (setting [5]), 1.6 ± 1 nM. In the case of `O=C(NC/C=C/CN1CCN(c2cccc(Cl)c2Cl)CC1)c1ccccc1Cl` [PG01009], in assay [1], the Ki was 13.1 ± 5.5 nM. The compound `O=C(NC/C=C/CN1CCN(c2cccc(Cl)c2Cl)CC1)c1ccc(F)cc1` [PG01012] yielded a Ki in assay [1] of 8.1 ± 2.7 nM.

With `O=C(NCC=CCN1CCN(c2cccc(Cl)c2Cl)CC1)c1ccc(O)cc1` [PG01015, N-{4-[4-(2,3-Dichloro-phenyl)-piperazin-1-yl]-but-2-enyl}-4-hydroxy-benzamide], the values for the Ki in assay [1], in assay [2] and in assay [3] were 13.7 ± 4.8 nM, 0.4 nM and 356 ± 26.5 nM, respectively. The D2/D3 in assay [2] was 34.

In assay [1], `O=C(NC/C=C/CN1CCN(c2cccc(Cl)c2Cl)CC1)c1ccccc1I` [PG01018] displayed a Ki of 12.7 ± 4.1 nM. For `O=C(NC/C=C/CN1CCN(c2cccc(Cl)c2Cl)CC1)c1cnc2ccccc2n1` [PG01020], the Ki stood at 70 ± 7.6 nM in assay [1] and 1110 ± 555 nM in assay [3]. As to `O=C(NC/C=C/CN1CCN(c2cccc(Cl)c2Cl)CC1)c1cccnc1` [PG01022], in assay [1], the Ki was found to be 11.2 ± 5.6 nM. The same measure, in the same setting: the figure for `O=C(NC/C=C/CN1CCN(c2cccc(Cl)c2Cl)CC1)c1ccccc1O` [PG01025] is 7.3 ± 3.2 nM. The same measure, in the same setting: then `COc1ccccc1C(=O)NC/C=C/CN1CCN(c2cccc(Cl)c2Cl)CC1` [PG01027], with 5.3 ± 3 nM; and `O=C(NC/C=C/CN1CCN(c2cccc(Cl)c2Cl)CC1)c1ccccc1[N+](=O)[O-]` [PG01029], with 10.5 ± 4.5 nM. As for `O=C(NC/C=C/CN1CCN(c2cccc(Cl)c2Cl)CC1)c1cc2ccccc2s1` [PG01030], the Ki in assay [2] was 1.3 ± 0.5 nM.

As to `O=C(NC/C=C/CN1CCN(c2cccc(Cl)c2Cl)CC1)c1ccccn1` [PG01034], the values for the Ki in assay [1] and in assay [2] were 31.2 ± 3.1 nM and 2 ± 0.6 nM, respectively. As to `O=C(NC/C=C/CN1CCN(c2cccc(Cl)c2Cl)CC1)c1ccncc1` [PG01035], the Ki in assay [1] is 17.2 ± 4.2 nM. On to `O=C(NC/C=C/CN1CCN(c2cccc(Cl)c2Cl)CC1)c1ccc(-c2ccccn2)cc1` [PG01037], for which the Ki was determined as 81.9 ± 20.7 nM in assay [1] and 505 ± 62.5 nM in assay [3]. As to `Nc1ccccc1C(=O)NC/C=C/CN1CCN(c2cccc(Cl)c2Cl)CC1` [PG01038], the Ki worked out at 25.6 ± 6.8 nM in assay [1] and 2.7 ± 0.8 nM in assay [2] (setting [5]).

As to `O=C(NC/C=C/CN1CCN(c2cccc(Cl)c2Cl)CC1)c1ccc(-c2cccnc2)cc1` [PG01041], the values for the Ki in assay [1] and in assay [3] were 63.3 ± 16.5 nM and 486 ± 157 nM, respectively. `O=C(NC/C=C/CN1CCN(c2cccc(Cl)c2Cl)CC1)c1cc2ccccc2o1` [PG01055] had a Ki in assay [1] of 101 ± 16.9 nM.

The values above are taken from patent publication US8119642B2, “Structurally rigid dopamine D3 receptor selective ligands and process for making them” (The United States of America as represented by the …, priority 2002, dated 2012).
